{
  "source": "patent US20240115530A1",
  "about": "“ADMINISTRATION OF BAIBA TO INCREASE BENEFIT OF LOSING WEIGHT OF INTERMITTENT FASTING” (NANJING NUTRABUILDING BIO-TECH CO., LTD., priority 2021, published 2024)",
  "format_in_all_cases": "in vivo, C57BL/6 male mice",
  "key": {"[1]": {"experiment": "Blood lipid biochemistry (TG, TCHO, LDL, VLDL) in HFD-fed obese mice", "details": "150 mg/kg daily per oral, end of study, with or without EODF, vs same regimen without L-BAIBA", "source_text": "(§1) Each study group consisted of ten animals, and treatment details of the individual study groups are given below: • Group A (GA, NC): Normal mice, maintained on normal diet for 11 weeks, receiving neither EODF nor L-BAIBA treatment. • Group B1 (GB1, HFD): Obese mice, maintained on high fat diet (HFD) for 11 weeks, receiving neither EODF nor L-BAIBA treatment. • Group B2 (GB2, HFD+EODF): Obese mice, maintained on HFD for 11 weeks, receiving only EODF and no L-BAIBA treatment. • Group B3 (GB3, HFD+BAIBA): Obese mice, maintained on HFD for 11 weeks, receiving only L-BAIBA treatment and no EODF. • Group B4 (GB4, HFD+EODF+BAIBA): Obese mice, maintained on HFD for 11 weeks, receiving L-BAIBA treatment and EODF combination.\n(§2) L-BAIBA was administered daily via per oral route according to a level of 150 mg/kg body weight. Animals not receiving L-BAIBA were given orally with ultrapure water.\nIntermittent fasting model: HFD fed male mice in groups at 8 weeks of age were randomly assigned into either ad libitum, or every-other-day-fasting (EODF) groups on a per cage basis. All cage bedding was changed to paper bedding for the duration of the model. Mice in the EODF group had total deprivation of food and ad libitum access to water from 1200 h-1200 h on alternate days with ad libitum food and water access. EODF cages were changed upon induction of fasting. Ad libitum control mice cages were changed every other day with fresh food provided.\n50 C57BL/6 male mice aged about 8 weeks, are randomly assigned to five study groups (GA, GB1, GB2, GB3, GB4) of ten mice each (two cages, 1 cage, n=5 per condition).\nThe same procedures were conducted as above-discussed Example 1.\nAt the end of the study, blood was collected from all test groups and a various clinical parameter were determined: triglyceride (TG), total cholesterol (TCHO), low-density lipoprotein (LDL) and very low-density lipoprotein (VLDL). FIG. 2a-2d are the results of TG, TCHO, LDL and VLDL in all test groups, respectively. […] This effect persists for as long as the test protocol is continued."}, "[2]": {"experiment": "Blood glucose and oral glucose tolerance test (OGTT) in HFD-fed obese mice", "details": "150 mg/kg daily per oral, vs same regimen without L-BAIBA", "source_text": "as §1, §2\n(§3) Intermittent fasting model: HFD fed male mice in groups at 8 weeks of age were randomly assigned into either ad libitum, or every-other-day-fasting (EODF) groups on a per cage basis. All cage bedding was changed to paper bedding for the duration of the model. […]\nGlucose levels in blood were measured weekly (week 12-19) on the starting day of every week before the day's EODF and L-BAIBA dosing activities. […]"}, "[3]": {"experiment": "Body weight reduction in HFD-fed obese mice with or without EODF", "details": "150 mg/kg daily per oral, 8-week treatment, vs same regimen without L-BAIBA", "protocol": "50 C57BL/6 male mice aged about 8 weeks, are randomly assigned to five study groups (GA, GB1, GB2, GB3, GB4) of ten mice each (two cages, 1 cage, n=5 per condition). Each animal's body weight is measured by a weight scale and recorded.\nThe total experimental time is 19 weeks, including two periods: an eleven-week induction period and a subsequent eight-week treatment period.\nas §1\nL-BAIBA was administered daily via per oral route according to a level of 150 mg/kg body weight. […]\nEach mouse's body weight is measured weekly during the study at 1200 h. FIG. 1 is the average body weight of mice in all test groups (Body weight were recorded from the beginning of the experiment). […]"}, "[4]": {"experiment": "Serum insulin and leptin by ELISA in HFD-fed obese mice", "details": "150 mg/kg daily per oral, end of treatment period, with or without EODF, vs same regimen without L-BAIBA", "source_text": "as §1, §2, §3\nSerum levels of insulin and leptin were determined at the end of the treatment period by standard ELISA methods. […]"}},
  "data": [
    {"smiles": "C[C@@H](CN)C(=O)O", "note": "[L-BAIBA, L-β-aminoisobutyric acid]", "values": [
      {"measurement": "low-density lipoprotein (LDL) level in blood", "setting": "[1]", "value": "lower levels"},
      {"measurement": "total cholesterol (TCHO) level in blood", "setting": "[1]", "value": "lower levels"},
      {"measurement": "triglyceride (TG) level in blood", "setting": "[1]", "value": "lower levels"},
      {"measurement": "very low-density lipoprotein (VLDL) level in blood", "setting": "[1]", "value": "lower levels"},
      {"measurement": "glucose tolerance (OGTT)", "setting": "[2]; OGTT after the treatment period, with or without EODF", "value": "better glucose tolerance"},
      {"measurement": "blood glucose level", "setting": "[2]; measured weekly week 12-19, with or without EODF", "value": "greater reduction in blood glucose level"},
      {"measurement": "body weight", "setting": "[3]", "value": "greater reduction in body weight"},
      {"measurement": "insulin resistance (serum insulin)", "setting": "[4]", "value": "improved"},
      {"measurement": "leptin resistance (serum leptin)", "setting": "[4]", "value": "improved leptin resistance"}
    ]}
  ]
}
